In the supplement of paper PMC10307832:

Legend:
Experiment in all cases: relative viability (nuclei count vs DMSO), 5 days (fraction); higher = more cells survive
CUDC-101 + Luminespib = compound: C#Cc1cccc(Nc2ncnc3cc(OC)c(OCCCCCCC(=O)NO)cc23)c1 [CUDC-101] + CCNC(=O)c1noc(-c2cc(C(C)C)c(O)cc2O)c1-c1ccc(CN2CCOCC2)cc1 [Luminespib] (partner 0.01 µM)
How it was run: (§1)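 A single step with final 0.05% Triton X-100, 1% formaldehyde and 1 ug/ml Hoechst fixed the cells and stained nuclei 5 days after treatment. Lung cancer cell lines in 1536-well plates had been treated by pin tool the day after seeding with one drug alone or a fixed anchor-drug dose plus five library-drug doses (not always all listed) in √10 steps, and nuclei were counted on 4× images. Relative viability is the ratio of nuclei in treated wells to nuclei in vehicle wells, taken as the median of duplicate plates.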

CUDC-101 + Linsitinib = compound: C#Cc1cccc(Nc2ncnc3cc(OC)c(OCCCCCCC(=O)NO)cc23)c1 [CUDC-101] + C[C@]1(O)C[C@@H](c2nc(-c3ccc4ccc(-c5ccccc5)nc4c3)c3c(N)nccn32)C1 [Linsitinib] (partner 1 µM)
How it was run: as §1

CUDC-101 + Olaparib = compound: C#Cc1cccc(Nc2ncnc3cc(OC)c(OCCCCCCC(=O)NO)cc23)c1 [CUDC-101] + O=C(c1cc(Cc2n[nH]c(=O)c3ccccc23)ccc1F)N1CCN(C(=O)C2CC2)CC1 [Olaparib] (partner 8 µM)
How it was run: as §1

NVP-TAE684 + Pictilisib = compound: COc1cc(N2CCC(N3CCN(C)CC3)CC2)ccc1Nc1ncc(Cl)c(Nc2ccccc2S(=O)(=O)C(C)C)n1 [NVP-TAE684] + CS(=O)(=O)N1CCN(Cc2cc3nc(-c4cccc5[nH]ncc45)nc(N4CCOCC4)c3s2)CC1 [Pictilisib] (partner 1 µM)
How it was run: as §1

Cell Line | relative viability (CUDC-101 + Luminespib; first compound 0.01 µM) | relative viability (CUDC-101 + Luminespib; first compound 0.03162 µM) | relative viability (CUDC-101 + Luminespib; first compound 0.1 µM) | relative viability (CUDC-101 + Luminespib; first compound 0.3162 µM) | relative viability (CUDC-101 + Luminespib; first compound 1 µM) | relative viability (CUDC-101 + Linsitinib; first compound 0.01 µM) | relative viability (CUDC-101 + Linsitinib; first compound 0.03162 µM) | relative viability (CUDC-101 + Linsitinib; first compound 0.1 µM) | relative viability (CUDC-101 + Linsitinib; first compound 0.3162 µM) | relative viability (CUDC-101 + Linsitinib; first compound 1 µM) | relative viability (CUDC-101 + Olaparib; first compound 0.01 µM) | relative viability (CUDC-101 + Olaparib; first compound 0.03162 µM) | relative viability (CUDC-101 + Olaparib; first compound 0.1 µM) | relative viability (CUDC-101 + Olaparib; first compound 0.3162 µM) | relative viability (CUDC-101 + Olaparib; first compound 1 µM) | relative viability (NVP-TAE684 + Pictilisib; first compound 0.2 µM) | relative viability (NVP-TAE684 + Pictilisib; first compound 0.6325 µM) | relative viability (NVP-TAE684 + Pictilisib; first compound 2 µM)
NCI-H358 | 0.263 | 0.407 | 0.225 | 0.659 | 0.448 | 0.849 | 0.71 | 0.793 | 0.646 | 0.323 | 0.641 | 0.625 | 0.66 | 0.543 | 0.408 | 0.305 | 0.261 | 0.219
NCI-H441 | 0.359 | 0.381 | 0.304 | 0.414 | 0.371 | 0.748 | 0.662 | 0.579 | 0.779 | 0.358 | 0.628 | 0.556 | 0.679 | 0.572 | 0.479 | 0.515 | 0.459 | 0.321
NCI-H460 | 0.0424 | 0.0301 | 0.0366 | 0.0315 | 0.0288 | 0.928 | 0.648 | 0.901 | 0.757 | 0.595 | 0.458 | 0.42 | 0.428 | 0.465 | 0.349 | 0.333 | 0.362 | 0.295
NCI-H520 | 0.241 | 0.221 | 0.208 | 0.204 | 0.245 | 0.997 |  | 1.05 | 0.982 | 0.485 | 0.298 | 0.325 | 0.305 | 0.298 | 0.194 | 0.337 | 0.3 | 0.228
NCI-H596 | 1.12 | 0.936 | 0.923 | 0.927 | 0.972 | 1.08 | 0.923 | 1.03 | 1.13 | 0.882 | 0.616 | 0.597 | 0.718 | 0.689 | 0.67 | 0.396 | 0.372 | 0.335
NCI-H647 | 0.188 | 0.266 | 0.147 | 0.195 | 0.238 | 1.23 | 1.03 | 1.18 | 1.1 | 1.12 | 0.547 | 0.522 | 0.67 | 0.554 | 0.342 | 0.429 | 0.381 | 0.473
NCI-H650 | 0.959 | 0.688 | 0.912 | 0.957 | 0.619 | 0.992 | 0.876 | 1.04 | 0.662 | 0.688 | 0.393 | 0.377 | 0.337 | 0.299 | 0.185 | 0.789 | 0.69 | 0.497
NCI-H661 | 0.985 | 0.975 | 0.876 | 0.835 | 0.674 | 0.64 | 0.487 | 0.74 | 0.681 | 0.675 | 0.795 | 0.69 | 0.632 | 0.611 | 0.437 | 0.449 | 0.426 | 0.429
NCI-H727 | 0.399 | 0.392 | 0.558 | 0.342 | 0.396 | 0.204 | 0.207 | 0.308 | 0.396 | 0.242 | 0.797 | 0.623 | 0.708 | 0.699 | 0.461 | 0.373 | 0.388 | 0.261
NCI-H838 | 0.302 | 0.248 | 0.228 | 0.251 | 0.218 | 1.08 | 0.85 | 1.08 | 1.06 | 0.898 | 0.802 | 0.784 | 0.807 | 0.649 | 0.489 | 0.408 | 0.356 | 0.235
NCI-H1355 | 0.729 | 0.741 | 0.694 | 0.676 | 0.586 | 0.887 | 0.761 | 0.822 | 0.739 | 0.645 | 0.756 | 0.711 | 0.726 | 0.693 | 0.585 | 0.467 | 0.323 | 0.343
NCI-H1395 | 0.623 | 0.733 | 0.906 | 0.802 | 0.663 | 1.13 | 1.05 | 0.963 | 1.07 | 0.888 | 0.472 | 0.558 | 0.447 | 0.435 | 0.405 | 0.659 | 0.61 | 0.589
NCI-H1437 | 1.27 | 1.06 | 1.12 | 1.21 | 1.19 | 1.16 | 0.842 | 0.957 | 0.983 | 0.4 | 0.676 | 0.649 | 0.642 | 0.605 | 0.537 | 0.369 | 0.433 | 0.297
NCI-H1651 | 0.787 | 0.77 | 0.811 | 0.991 | 0.839 | 1.14 | 0.866 | 0.996 | 1.04 | 0.912 | 0.194 | 0.209 | 0.192 | 0.2 | 0.182 | 0.366 | 0.629 | 0.402
NCI-H1666 | 1.09 | 1.02 | 1.1 | 1 | 1.07 | 0.747 | 0.741 | 0.759 | 0.84 | 0.519 | 0.777 | 0.741 | 0.717 | 0.751 | 0.713 | 0.31 | 0.348 | 0.274
NCI-H1734 | 0.206 | 0.185 | 0.193 | 0.167 | 0.157 | 0.948 | 0.796 | 0.858 | 0.961 | 0.704 | 0.663 | 0.606 | 0.59 | 0.697 | 0.499 | 0.422 | 0.364 | 0.336
NCI-H1755 | 0.602 | 0.302 | 0.496 | 0.576 | 0.394 | 1.04 | 0.988 | 0.994 | 0.986 | 0.968 | 0.873 | 0.933 | 0.904 | 0.853 | 0.753 | 0.5 | 0.414 | 0.408
